One assay concerns the target human orexin-2 receptor (Homo sapiens (Human), UniProt O43614). Briefly: Intracellular calcium measurement (FLIPR), CHO cells expressing human orexin-2 receptor, 3 nM orexin-A. The conditions noted are these: read-out: IC50 OX2. The assay is classed as cell-based. The gist of the method:
(§1)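 CHO transfectants were dye-loaded (fluo-4 AM, probenecid) and exposed to antagonist for 120 min ahead of agonist.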

The next assay concerns the target orexin-1 (Homo sapiens (Human), UniProt O43613). Briefly: Intracellular calcium measurement (FLIPR), CHO cells expressing human orexin-1 receptor, 3 nM orexin-A. Type of assay: cell-based. The conditions noted are these: read-out: IC50 OX1. The gist of the method:
as §1
In general terms: Calcium flux is commonly read through the fluorescence of an indicator in the cells.

Setting [1] is: CHO cells expressing human orexin-2 receptor, FLIPR, 3 nM orexin-A, geometric mean if determined several times.
The mark [2] stands for this setting: CHO cells expressing human orexin-1 receptor, FLIPR, 3 nM orexin-A, geometric mean if determined several times.

Where two headings read alike, the source gives them in different places. Some results are limits rather than exact numbers.

Sequence of orexin-1 (O43613 whole entry): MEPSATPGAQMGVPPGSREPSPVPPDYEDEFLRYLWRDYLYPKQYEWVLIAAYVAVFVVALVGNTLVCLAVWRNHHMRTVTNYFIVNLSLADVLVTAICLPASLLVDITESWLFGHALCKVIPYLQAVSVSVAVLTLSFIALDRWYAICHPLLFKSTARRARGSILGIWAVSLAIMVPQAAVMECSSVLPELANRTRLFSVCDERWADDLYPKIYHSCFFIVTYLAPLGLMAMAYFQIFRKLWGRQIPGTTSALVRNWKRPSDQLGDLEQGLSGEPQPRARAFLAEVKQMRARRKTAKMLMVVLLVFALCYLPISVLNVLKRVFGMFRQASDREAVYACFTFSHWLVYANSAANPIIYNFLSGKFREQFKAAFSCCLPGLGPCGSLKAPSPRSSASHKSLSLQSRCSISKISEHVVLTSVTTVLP
Sequence of human orexin-2 receptor (O43614 whole entry): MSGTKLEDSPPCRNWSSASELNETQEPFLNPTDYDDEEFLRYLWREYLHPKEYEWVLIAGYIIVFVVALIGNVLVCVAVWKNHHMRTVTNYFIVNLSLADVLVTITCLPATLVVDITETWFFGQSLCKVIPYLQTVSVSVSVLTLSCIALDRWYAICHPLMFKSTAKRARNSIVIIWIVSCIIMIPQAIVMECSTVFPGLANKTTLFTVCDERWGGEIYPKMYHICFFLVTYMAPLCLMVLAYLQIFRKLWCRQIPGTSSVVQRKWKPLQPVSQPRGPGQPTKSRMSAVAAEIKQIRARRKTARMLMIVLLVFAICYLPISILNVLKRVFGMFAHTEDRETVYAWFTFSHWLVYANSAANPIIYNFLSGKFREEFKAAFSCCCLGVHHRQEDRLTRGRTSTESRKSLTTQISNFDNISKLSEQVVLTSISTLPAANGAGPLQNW

As usually defined, the IC50 is the concentration at which inhibition is half-maximal. As for `Cc1ccc(-n2nccn2)c(C(=O)N2CCC[C@H]2c2nc(-c3c(C)cccc3Cl)no2)c1` [compound 24], the half-maximal inhibitory concentration (IC50) on human orexin-2 receptor (setting [1]) was determined as 104 nM; at orexin-1 (setting [2]), 472 nM.
In the case of `CCc1ccccc1-c1noc([C@@H]2CCCN2C(=O)c2cc(C)ccc2-n2nccn2)n1` [compound 25, {(S)-2-[3-(2-Ethyl-phenyl)-[1,2,4]oxadiazol-5-yl]-pyrrolidin-1-yl}-(5-methyl-2-[1,2,3]triazol-2-yl-phenyl)-methanone], the concentration for half-maximal inhibition (IC50) on human orexin-2 receptor (setting [1]) worked out at 11 nM; at orexin-1 (setting [2]), 19 nM.
For `Cc1ccc(-n2nccn2)c(C(=O)N2CCC[C@H]2c2nc(-c3cccc(F)c3C)no2)c1` [compound 26, {(S)-2-[3-(3-Fluoro-2-methyl-phenyl)-[1,2,4]oxadiazol-5-yl]-pyrrolidin-1-yl}-(5-methyl-2-[1,2,3]triazol-2-yl-phenyl)-methanone], the half-maximal inhibitory concentration (IC50) at human orexin-2 receptor (setting [1]) stood at 5 nM; on orexin-1 (setting [2]) it was 77 nM.
For the compound `Cc1ccc(-n2nccn2)c(C(=O)N2CCC[C@H]2c2nc(-c3cccc(C)c3Cl)no2)c1` [compound 27], the IC50 is 8 nM on human orexin-2 receptor and 125 nM at orexin-1 (setting [2]).
Consider `Cc1ccc(-n2nccn2)c(C(=O)N2CCC[C@H]2c2nc(-c3cccnc3Cl)no2)c1` [compound 28], for which the IC50 amounted to 33 nM on human orexin-2 receptor (setting [1]) and 2610 nM at orexin-1.
As to `Cc1ccc(-n2nccn2)c(C(=O)N2CCC[C@H]2c2nc(-c3ccccc3C(F)(F)F)no2)c1` [compound 29, (5-Methyl-2-[1,2,3]triazol-2-yl-phenyl)-{(S)-2-[3-(2-trifluoromethyl-phenyl)-[1,2,4]oxadiazol-5-yl]-pyrrolidin-1-yl}-methanone], the results for the half-maximal inhibitory concentration (IC50) on human orexin-2 receptor (setting [1]) and at orexin-1 (setting [2]) were 39 nM and 249 nM, respectively.
In the same order, the values of `Cc1ccc(-n2nccn2)c(C(=O)N2CCC[C@H]2c2nc(-c3ccccc3O)no2)c1` [compound 31, {(S)-2-[3-(2-Hydroxy-phenyl)-[1,2,4]oxadiazol-5-yl]-pyrrolidin-1-yl}-(5-methyl-2-[1,2,3]triazol-2-yl-phenyl)-methanone] are 259 nM and 2910 nM.
The like results for `COc1cc(-c2noc([C@@H]3CCCN3C(=O)c3cc(C)ccc3-n3nccn3)n2)ccn1` [compound 32, {(S)-2-[3-(2-Methoxy-pyridin-4-yl)-[1,2,4]oxadiazol-5-yl]-pyrrolidin-1-yl}-(5-methyl-2-[1,2,3]triazol-2-yl-phenyl)-methanone] were, in that order, 955 nM and 2290 nM.
`Cc1ccc(-n2nccn2)c(C(=O)N2CCC[C@H]2c2nc(-c3ccccc3OC(F)F)no2)c1` [compound 33, {(S)-2-[3-(2-Difluoromethoxy-phenyl)-[1,2,4]oxadiazol-5-yl]-pyrrolidin-1-yl}-(5-methyl-2-[1,2,3]triazol-2-yl-phenyl)-methanone]: the IC50 was 9 nM on human orexin-2 receptor (setting [1]) and 62 nM at orexin-1 (setting [2]).
In the case of `Cc1ccc(-n2nccn2)c(C(=O)N2CCC[C@H]2c2nc(-c3c(C)cncc3C)no2)c1` [compound 37, {(S)-2-[3-(3,5-Dimethyl-pyridin-4-yl)-[1,2,4]oxadiazol-5-yl]-pyrrolidin-1-yl}-(5-methyl-2-[1,2,3]triazol-2-yl-phenyl)-methanone], the 50% inhibitory concentration (IC50) on human orexin-2 receptor (setting [1]) was 1060 nM; at orexin-1 (setting [2]) it was over 5640 nM.
Turning to `Cc1ccc(-n2nccn2)c(C(=O)N2CCC[C@H]2c2nc(-c3cccc4c3OCCO4)no2)c1` [compound 38, {(S)-2-[3-(2,3-Dihydro-benzo[1,4]dioxin-5-yl)-[1,2,4]oxadiazol-5-yl]-pyrrolidin-1-yl}-(5-methyl-2-[1,2,3]triazol-2-yl-phenyl)-methanone], the IC50 stood at 12 nM on human orexin-2 receptor (setting [1]) and 23 nM at orexin-1 (setting [2]).
Take `Cc1ccc(-n2nccn2)c(C(=O)N2CCC[C@H]2c2nc(-c3cccc4[nH]ccc34)no2)c1` [compound 39, {(S)-2-[3-(1H-Indol-4-yl)-[1,2,4]oxadiazol-5-yl]-pyrrolidin-1-yl}-(5-methyl-2-[1,2,3]triazol-2-yl-phenyl)-methanone]: the IC50 stood at 92 nM at human orexin-2 receptor (setting [1]) and 658 nM at orexin-1 (setting [2]).
The like results for `CCOc1ccccc1-c1noc([C@@H]2CCCN2C(=O)c2cc(C)ccc2-n2nccn2)n1` [compound 40, {(S)-2-[3-(2-Ethoxy-phenyl)-[1,2,4]oxadiazol-5-yl]-pyrrolidin-1-yl}-(5-methyl-2-[1,2,3]triazol-2-yl-phenyl)-methanone] were, in that order, 4 nM and 22 nM.
Turning to `CCOc1ncccc1-c1noc([C@@H]2CCCN2C(=O)c2cc(C)ccc2-n2nccn2)n1` [compound 41, {(S)-2-[3-(2-Ethoxy-pyridin-3-yl)-[1,2,4]oxadiazol-5-yl]-pyrrolidin-1-yl}-(5-methyl-2-[1,2,3]triazol-2-yl-phenyl)-methanone], the IC50 at human orexin-2 receptor (setting [1]) amounted to 7 nM; on orexin-1 (setting [2]), 22 nM.
The like results for `COc1ccc2[nH]cc(-c3noc([C@@H]4CCCN4C(=O)c4cc(C)ccc4-n4nccn4)n3)c2c1` [compound 42, {(S)-2-[3-(5-Methoxy-1H-indol-3-yl)-[1,2,4]oxadiazol-5-yl]-pyrrolidin-1-yl}-(5-methyl-2-[1,2,3]triazol-2-yl-phenyl)-methanone] were, in that order, 108 nM and 112 nM.
`Cc1ccc(-n2nccn2)c(C(=O)N2CCC[C@H]2c2nc(-c3cccc(OC(F)F)c3)no2)c1` [compound 43, {(S)-2-[3-(3-Difluoromethoxy-phenyl)-[1,2,4]oxadiazol-5-yl]-pyrrolidin-1-yl}-(5-methyl-2-[1,2,3]triazol-2-yl-phenyl)-methanone]: the concentration for half-maximal inhibition (IC50) came out at 23 nM on human orexin-2 receptor (setting [1]) and 284 nM at orexin-1 (setting [2]).
With `COCc1ccccc1-c1noc([C@@H]2CCCN2C(=O)c2cc(C)ccc2-n2nccn2)n1` [compound 44, {(S)-2-[3-(2-Methoxymethyl-phenyl)-[1,2,4]oxadiazol-5-yl]-pyrrolidin-1-yl}-(5-methyl-2-[1,2,3]triazol-2-yl-phenyl)-methanone], the IC50 stood at 14 nM at human orexin-2 receptor (setting [1]) and 110 nM at orexin-1 (setting [2]).
With `CCCOc1ccccc1-c1noc([C@@H]2CCCN2C(=O)c2cc(C)ccc2-n2nccn2)n1` [compound 45], the IC50 was 125 nM on human orexin-2 receptor (setting [1]) and 112 nM on orexin-1 (setting [2]).
As for `Cc1ccc(-n2nccn2)c(C(=O)N2CCC[C@H]2c2nc(-c3cccc4cc[nH]c34)no2)c1` [compound 46, {(S)-2-[3-(1H-Indol-7-yl)-[1,2,4]oxadiazol-5-yl]-pyrrolidin-1-yl}-(5-methyl-2-[1,2,3]triazol-2-yl-phenyl)-methanone], the values for the IC50 on human orexin-2 receptor (setting [1]) and on orexin-1 (setting [2]) were 9 nM and 4 nM, respectively.
The like results for `COc1cc(OC)cc(-c2noc([C@@H]3CCCN3C(=O)c3cc(C)ccc3-n3nccn3)n2)c1` [compound 47, {(S)-2-[3-(3,5-Dimethoxy-phenyl)-[1,2,4]oxadiazol-5-yl]-pyrrolidin-1-yl}-(5-methyl-2-[1,2,3]triazol-2-yl-phenyl)-methanone] were, in that order, 90 nM and 316 nM.
In the same order, the values of `Cc1ccc(-n2nccn2)c(C(=O)N2CCC[C@H]2c2nc(-c3cccnc3OC3CCC3)no2)c1` [compound 48, {(S)-2-[3-(2-Cyclobutoxy-pyridin-3-yl)-[1,2,4]oxadiazol-5-yl]-pyrrolidin-1-yl}-(5-methyl-2-[1,2,3]triazol-2-yl-phenyl)-methanone] are 58 nM and 45 nM.
